Assay results published in patent US20080274913A1, “Multiplex Array Useful for Assaying Protein-Protein Interaction” (priority 2005, published 2008).
Read-outs that look alike come from different tables or passages of the source. Values belong to the compound of their own block, whether it stands above or below them.

Experiments:
[1] = target: chemokine (C-C motif) receptor 5 (CCR5) (Homo sapiens, UniProt P51681); test: CCR5-tTA reporter assay in clone 34 cells; type: cell-based; conditions: 1 μg/ml; low efficiency cleavage site
Text: α Constructs were also made to establish an assay for the G protein coupled chemokine (C—C motif) receptor 5 (CCR5). The CCR5 coding region (Genbank Accession Number: NM_000579) (SEQ ID NO: 32) was modified to place Not I site at the 5′ end and replace the stop codon with a BamHI site using PCR with the primers
The first modified coding region was cut with ClaI and BamHI and the second was cut with BsaI and ClaI. Both fragments were ligated into the AVPR2-tTA constructs described supra, which had been cut with EcoRI and BamHI. This replaced the entire coding sequence of AVPR2 with the coding sequence of CCR5.
Assays were carried out using 1 μg/ml “Regulated on Activation, Normal T-Cell Expressed and Secreted” (RANTES), a known agonist for CCR5.

[2] = target: CCR5-tTA fusion construct containing the low efficiency cleavage site (UniProt P51681); test: cell-based or functional assay
Chain of CCR5-tTA fusion construct containing the low efficiency cleavage site (P51681 whole entry, the tested form may be a part): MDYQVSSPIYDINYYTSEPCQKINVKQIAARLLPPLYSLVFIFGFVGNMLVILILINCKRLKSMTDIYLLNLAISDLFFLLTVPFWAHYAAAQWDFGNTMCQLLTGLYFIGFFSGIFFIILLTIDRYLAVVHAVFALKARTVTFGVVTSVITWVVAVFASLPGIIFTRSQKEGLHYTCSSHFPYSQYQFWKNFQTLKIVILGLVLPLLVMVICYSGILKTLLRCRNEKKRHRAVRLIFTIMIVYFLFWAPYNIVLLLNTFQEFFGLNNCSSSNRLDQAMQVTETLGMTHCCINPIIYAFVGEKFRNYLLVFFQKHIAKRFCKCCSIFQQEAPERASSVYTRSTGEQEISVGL

[3] = target: epidermal growth factor receptor (EGFR) (Homo sapiens, UniProt P00533); test: EGFR-tTA / PLC Gamma1-TEV luciferase reporter assay in HTL5B8.1 cells; type: cell-based; conditions: 100 ng/ml; six hours
ADRB2 [4] = target: T1, ADRB2 (Homo sapiens, UniProt P07550); type: cell-based; conditions: ADRB2-tTA with low efficiency cleavage site; clone 41 cells
[5] = target: EGFR-TEV-NIa-Pro cleavage (Leu)-tTA (human) (UniProt P00533); test: cell-based or functional assay
ADRA1A = ADRA1A (Homo sapiens, UniProt P35348); conditions: 10 μM, low efficiency cleavage site
[6] = target: T2, human Type I Interferon Receptor (Homo sapiens, UniProt P17181+P48551); test: IFNAR1-GAL4-NF-κB / IFNAR2.2-TEV luciferase reporter assay in CHO-K1 cells; type: cell-based; design: expressed in transfected cells; host or cells: CHO-K1; CMV-STAT1, CMV-STAT2 and pFR-Luc co-transfected
T2 sequence (P17181 28-557): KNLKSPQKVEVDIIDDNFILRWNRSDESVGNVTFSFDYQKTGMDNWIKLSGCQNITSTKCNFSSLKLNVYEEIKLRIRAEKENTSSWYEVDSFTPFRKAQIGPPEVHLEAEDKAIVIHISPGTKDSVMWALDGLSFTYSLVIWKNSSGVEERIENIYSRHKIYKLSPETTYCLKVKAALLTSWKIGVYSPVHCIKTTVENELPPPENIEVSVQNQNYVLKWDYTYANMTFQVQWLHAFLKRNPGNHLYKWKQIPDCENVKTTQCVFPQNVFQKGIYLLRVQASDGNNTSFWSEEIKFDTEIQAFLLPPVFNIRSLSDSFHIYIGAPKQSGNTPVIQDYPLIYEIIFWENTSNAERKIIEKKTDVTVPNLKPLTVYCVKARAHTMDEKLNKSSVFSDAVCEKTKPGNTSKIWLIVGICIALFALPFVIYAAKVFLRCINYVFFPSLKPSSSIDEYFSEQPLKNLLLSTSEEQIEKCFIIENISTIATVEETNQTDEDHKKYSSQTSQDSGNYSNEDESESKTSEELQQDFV
T2 sequence (P48551 27-515): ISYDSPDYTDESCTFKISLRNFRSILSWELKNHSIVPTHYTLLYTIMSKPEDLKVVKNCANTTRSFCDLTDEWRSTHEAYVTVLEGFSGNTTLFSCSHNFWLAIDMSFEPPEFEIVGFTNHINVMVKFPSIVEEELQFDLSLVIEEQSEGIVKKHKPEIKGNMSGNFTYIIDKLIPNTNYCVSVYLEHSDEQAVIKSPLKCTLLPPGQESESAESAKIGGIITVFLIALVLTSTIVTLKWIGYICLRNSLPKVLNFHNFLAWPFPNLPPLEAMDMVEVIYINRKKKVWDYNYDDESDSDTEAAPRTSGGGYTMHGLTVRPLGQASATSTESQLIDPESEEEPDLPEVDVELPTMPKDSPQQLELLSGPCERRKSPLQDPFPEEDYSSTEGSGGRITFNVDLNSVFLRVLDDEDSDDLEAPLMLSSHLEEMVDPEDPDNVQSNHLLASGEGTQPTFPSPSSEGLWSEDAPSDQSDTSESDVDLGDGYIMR

[7] = target: T2, human Type I Interferon Receptor; test: IFNAR1-tTA / IFNAR2.2-TEV luciferase reporter assay in HTL5B8.1 cells; type: cell-based; conditions: 5000 U/ml, 18-20 hours
ADRB2 [8] = target: T1, ADRB2; conditions: 1 μM each agonist; mixed clone 41 and clone 1H10 cells; about 24 hours
DRD2 [9] = target: T3, DRD2 (Homo sapiens, UniProt P14416); conditions: 1 μM each agonist; mixed clone 41 and clone 1H10 cells; about 24 hours
[10] = target: dopamine 2 receptor (DRD2) (Homo sapiens, UniProt P14416); conditions: 10 μM, medium efficiency cleavage site
Chain of dopamine 2 receptor (DRD2) (P14416 whole entry): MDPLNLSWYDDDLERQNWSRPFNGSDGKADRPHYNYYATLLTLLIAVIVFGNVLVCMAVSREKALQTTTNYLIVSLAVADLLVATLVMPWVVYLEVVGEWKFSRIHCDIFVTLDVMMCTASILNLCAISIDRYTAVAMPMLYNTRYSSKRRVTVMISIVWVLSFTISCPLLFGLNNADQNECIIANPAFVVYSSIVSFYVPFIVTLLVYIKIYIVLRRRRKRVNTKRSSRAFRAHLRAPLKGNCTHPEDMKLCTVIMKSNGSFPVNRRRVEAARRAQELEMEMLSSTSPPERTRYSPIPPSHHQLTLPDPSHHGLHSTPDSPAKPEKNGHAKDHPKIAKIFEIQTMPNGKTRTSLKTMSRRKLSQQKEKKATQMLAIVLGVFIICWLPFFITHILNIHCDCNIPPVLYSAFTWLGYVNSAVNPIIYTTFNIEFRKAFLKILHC

DRD2 [11] = target: DRD2 (Homo sapiens, UniProt P14416+P30550); conditions: μM dopamine; DRD2-GRPR 42aa Tail-tTA, low efficiency cleavage site
DRD2 [12] = target: T3, DRD2; conditions: 10 μM; DRD2-AVPR2 Tail-tTA, low efficiency cleavage site
ADRA2A = target: T4, ADRA2A (Homo sapiens, UniProt P08913); conditions: antagonist experiments, FIGS. 11F to 11J
T4 sequence (P08913 1-465): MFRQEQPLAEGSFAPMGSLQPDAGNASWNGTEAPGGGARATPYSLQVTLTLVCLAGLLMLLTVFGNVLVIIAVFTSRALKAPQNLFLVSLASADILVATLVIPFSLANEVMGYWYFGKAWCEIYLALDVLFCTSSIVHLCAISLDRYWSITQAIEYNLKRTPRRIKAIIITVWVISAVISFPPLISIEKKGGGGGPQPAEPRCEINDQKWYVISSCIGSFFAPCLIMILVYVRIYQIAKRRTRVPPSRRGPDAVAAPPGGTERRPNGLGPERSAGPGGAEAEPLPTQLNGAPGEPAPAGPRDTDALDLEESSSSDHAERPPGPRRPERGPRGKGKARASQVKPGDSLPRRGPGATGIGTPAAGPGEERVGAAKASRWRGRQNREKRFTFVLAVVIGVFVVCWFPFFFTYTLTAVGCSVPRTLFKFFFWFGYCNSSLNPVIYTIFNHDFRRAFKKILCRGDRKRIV

ADRB1 = ADRB1 (Homo sapiens, UniProt P08588); conditions: for inhibition of receptor response by antagonist: FIG. 11F
Chain of ADRB1 (P08588 whole entry): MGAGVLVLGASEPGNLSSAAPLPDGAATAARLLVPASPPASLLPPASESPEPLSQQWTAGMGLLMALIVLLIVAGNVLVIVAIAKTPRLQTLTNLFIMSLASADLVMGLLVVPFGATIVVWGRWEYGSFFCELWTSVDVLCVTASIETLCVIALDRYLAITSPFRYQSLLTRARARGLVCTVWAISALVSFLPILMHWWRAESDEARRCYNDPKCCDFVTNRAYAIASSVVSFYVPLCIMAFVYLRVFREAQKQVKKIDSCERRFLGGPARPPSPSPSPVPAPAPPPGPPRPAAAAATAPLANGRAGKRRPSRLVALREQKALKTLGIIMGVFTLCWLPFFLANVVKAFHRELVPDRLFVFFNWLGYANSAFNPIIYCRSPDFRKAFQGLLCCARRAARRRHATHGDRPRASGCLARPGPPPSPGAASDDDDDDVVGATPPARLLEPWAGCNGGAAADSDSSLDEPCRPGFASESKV

ADRA2B = target: T5, ADRA2B (Homo sapiens, UniProt P18089); conditions: antagonist experiments, FIGS. 11F to 11J
T5 sequence (P18089 1-450): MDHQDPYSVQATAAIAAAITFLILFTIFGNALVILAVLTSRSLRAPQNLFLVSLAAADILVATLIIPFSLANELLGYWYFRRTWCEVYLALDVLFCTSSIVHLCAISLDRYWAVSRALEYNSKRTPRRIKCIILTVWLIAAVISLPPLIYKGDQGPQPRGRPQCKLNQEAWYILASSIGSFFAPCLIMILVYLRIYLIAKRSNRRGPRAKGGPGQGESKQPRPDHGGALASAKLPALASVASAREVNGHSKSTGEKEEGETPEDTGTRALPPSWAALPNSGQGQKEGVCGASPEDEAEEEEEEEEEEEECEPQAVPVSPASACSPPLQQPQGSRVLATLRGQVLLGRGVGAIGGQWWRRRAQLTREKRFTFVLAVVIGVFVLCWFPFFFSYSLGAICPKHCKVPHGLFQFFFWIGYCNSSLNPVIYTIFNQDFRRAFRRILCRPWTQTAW

ADRA2C = target: T6, ADRA2C (Homo sapiens, UniProt P18825)
T6 sequence (P18825 1-462): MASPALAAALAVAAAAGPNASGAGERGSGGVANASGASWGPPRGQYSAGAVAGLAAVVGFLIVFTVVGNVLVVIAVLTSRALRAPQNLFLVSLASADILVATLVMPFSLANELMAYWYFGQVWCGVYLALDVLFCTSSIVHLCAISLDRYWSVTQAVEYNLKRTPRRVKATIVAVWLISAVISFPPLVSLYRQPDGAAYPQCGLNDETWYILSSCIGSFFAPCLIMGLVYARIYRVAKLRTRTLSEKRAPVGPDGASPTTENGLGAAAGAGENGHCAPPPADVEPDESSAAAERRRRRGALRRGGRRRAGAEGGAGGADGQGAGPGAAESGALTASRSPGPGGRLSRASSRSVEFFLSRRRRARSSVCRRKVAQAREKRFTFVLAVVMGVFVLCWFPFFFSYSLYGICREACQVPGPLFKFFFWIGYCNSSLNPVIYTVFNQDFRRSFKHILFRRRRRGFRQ

[13] = target: human Type I Interferon Receptor (IFNAR1-TEV-NIa-Pro cleavage (L)-tTA with IFNAR2.2-TEV, in HTL5B8.1 cells) (human; tobacco etch virus) (UniProt P17181); test: cell-based or functional assay
[14] = target: DRD2-GRPR 42aa Tail-tTA fusion construct containing the low efficiency cleavage site (UniProt P14416); test: cell-based or functional assay
Chain of DRD2-GRPR 42aa Tail-tTA fusion construct containing the low efficiency cleavage site (P14416 other isoform, or with tags, fused parts or gaps): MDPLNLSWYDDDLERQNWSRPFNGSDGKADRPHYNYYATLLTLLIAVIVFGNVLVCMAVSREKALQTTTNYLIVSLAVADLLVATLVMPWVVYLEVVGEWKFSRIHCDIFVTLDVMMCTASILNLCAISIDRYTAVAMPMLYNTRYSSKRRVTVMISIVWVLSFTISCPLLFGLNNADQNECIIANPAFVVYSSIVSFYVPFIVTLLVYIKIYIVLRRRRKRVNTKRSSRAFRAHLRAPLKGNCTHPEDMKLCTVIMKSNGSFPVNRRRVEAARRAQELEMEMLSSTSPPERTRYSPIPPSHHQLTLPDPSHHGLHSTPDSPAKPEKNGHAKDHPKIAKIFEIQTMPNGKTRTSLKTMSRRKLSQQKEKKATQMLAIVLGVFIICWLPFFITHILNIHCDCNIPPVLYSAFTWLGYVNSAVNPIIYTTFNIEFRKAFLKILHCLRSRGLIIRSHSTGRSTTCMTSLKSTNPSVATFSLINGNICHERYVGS

ADRB2 [15] = target: T1, ADRB2
[16] = target: serotonin receptor 1a (HTR1A) (Homo sapiens, UniProt P08908); type: cell-based; conditions: 10 μM; low efficiency cleavage site

Compound: Nc1ncnc2c1ncn2[C@@H]1O[C@H](COP(=O)(O)OP(=O)(O)OP(=O)(O)O)[C@@H](O)[C@H]1O [ATP]
induction of reporter gene activity by an agonist of other, endogenous GPCRs (P2Y1, P2Y2) (ADRB2 [4]): Stimulation of another GPCR pathway was irrelevant

Compound: CNC[C@H](O)c1ccc(O)c(O)c1 [epinephrine]
maximal response, induction of reporter gene expression over the background (ADRA1A; ADRA1A-GRPR 23aa Tail-tTA): approximately 102 fold | maximal response, increase in reporter gene activity (ADRA1A; ADRA1A-GRPR 42aa Tail-tTA): approximately 14 fold

Compound: Cl.NCCc1ccc(O)c(O)c1 [dopamine, dopamine HCl]
induction of beta-galactosidase reporter gene activity (ADRB2 [8]): remained unchanged | induction of luciferase activity (DRD2 [9]): 3.5 fold | maximal response, induction of reporter gene expression over the background ([10]; ARRB1-TEV-NIa protease fusion): 2.1 fold | maximal response, induction of reporter gene expression over the background ([10]; ARRB2-TEV-NIa protease fusion): 2.7 fold | maximal response, increase in reporter gene activity (DRD2 [11]): approximately 30 fold | maximal response, induction of reporter gene expression over the background (DRD2 [12]): approximately 60 fold

Compound: human interferon-alpha (ligand)
fold increase in reporter gene activity (luciferase), 5000 U/ml IFN-α [13]: 15 fold

Compound: ARRB2-TEV-NIa protease fusion (from UniProt P32121 1-409)
fold increase in reporter gene activity (luciferase), dopamine [14]: 30 fold

Compound: Brc1c(NC2=NCCN2)ccc2nccnc12 [UK14,304]
agonist effect on the receptor (ADRB1; any concentration used, FIG. 11A): no effect | agonist effect on the receptor (ADRB2 [15]; any concentration used, FIG. 11B): no effect | agonist response, UK14,304 compared with isoproterenol (ADRA2C; varying concentrations of agonist): respond to much lower concentration of UK14,304 than isoproterenol

Compound: human interferon-beta (from UniProt P01574 22-187) (ligand)
fold increase in reporter gene activity (luciferase), 5000 U/ml IFN-β [13]: 10 fold

Continued, in another order:

maximal response, induction of reporter gene expression over the background [1]: approximately 40 fold
Compound: RANTES: Regulated on Activation, Normal T-Cell Expressed and Secreted, a known agonist for CCR5

maximal fold induction of reporter gene expression over the background, 1 µg/ml RANTES [2]: 40 fold
Compound: Regulated on Activation, Normal T-Cell Expressed and Secreted (RANTES) (from UniProt P13501 24-91) (ligand)

increase of luciferase reporter gene activity [3]: 18.3 fold
Compound: human Transforming Growth Factor—Alpha: human Transforming Growth Factor-Alpha, EGFR agonist

fold increase of luciferase reporter gene activity, 100 ng/ml human Transforming Growth Factor-Alpha [5]: 18.3 fold
Compound: human Transforming Growth Factor-Alpha (from UniProt P01135 40-89) (ligand)

increase in reporter gene activity ([6]; 5000 U/ml, 6 hours, CHO-K1 cells with reporter, IFNAR and STAT constructs): 3 fold | effect on reporter gene activity ([6]; CHO-K1 cells transfected with the reporter and control plasmids): no effect | increase in reporter gene activity [7]: 15 fold
Compound: IFN-α

inhibition of receptor response by antagonist (ADRB1): markedly inhibited
Compound: C=CCc1ccccc1OCC(O)CNC(C)C (centres unmarked) [alprenolol]
inhibition of receptor response by antagonist (ADRA2A): only a modest inhibitory effect at the highest concentrations tested | inhibition of receptor response by antagonist (ADRA2B): only a modest inhibitory effect at the highest concentrations tested | inhibition of receptor response by antagonist (ADRA2C; antagonist experiments, FIGS. 11F to 11J): only a modest inhibitory effect at the highest concentrations tested

inhibition of receptor response by antagonist (ADRB1): no effect
Compound: COC(=O)[C@@H]1[C@H]2C[C@H]3c4[nH]c5ccccc5c4CCN3C[C@@H]2CC[C@@H]1O [yohimbine]
inhibition of receptor response by antagonist (ADRB2 [15]; FIG. 11G): inhibition at only the very highest concentrations tested

maximal response, induction of reporter gene expression over background level [16]: 4.6 fold
Compound: NCCc1c[nH]c2ccc(O)cc12 [serotonin]
